Test results published in PubChem BioAssay (NCI).
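Cells were grown in 96-well plates and exposed to each compound for 48 hours at five concentrations; endpoints were interpolated linearly between bracketing concentrations, or set to the highest concentration if not reached. The concentration for full growth arrest is given as TGI.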

Experiments:
Assay in all cases: NCI anticancer screen, dose series, 48 h
[1] = tested on: NCI-H460 lung
[2] = tested on: SNB-75 CNS
[3] = tested on: LXFL 529 NSCLC
[4] = tested on: DMS 273 small cell lung
[5] = tested on: SK-MEL-28 melanoma
[6] = tested on: IGROV1 ovarian
[7] = tested on: UO-31 renal
[8] = tested on: OVCAR-8 ovarian
[9] = tested on: K-562 leukemia
[10] = tested on: HCT-116 colon
[11] = tested on: SF-268 CNS
[12] = tested on: A498 renal
[13] = tested on: OVCAR-5 ovarian
[14] = tested on: RPMI-8226 leukemia
[15] = tested on: HCC-2998 colon
[16] = tested on: DLD-1 colon
[17] = tested on: HT29 colon
[18] = tested on: SW-620 colon
[19] = tested on: SK-OV-3 ovarian
[20] = tested on: UACC-62 melanoma
[21] = tested on: NCI-H23 lung
[22] = tested on: CAKI-1 renal
[23] = tested on: NCI-H226 lung
[24] = tested on: MALME-3M melanoma
[25] = tested on: SN12C renal
[26] = tested on: COLO 205 colon
[27] = tested on: HOP-92 NSCLC
[28] = tested on: LOX IMVI melanoma
[29] = tested on: EKVX NSCLC
[30] = tested on: 786-0 renal
[31] = tested on: M19-MEL melanoma
[32] = tested on: SNB-78 CNS
[33] = tested on: SK-MEL-2 melanoma
[34] = tested on: HCT-15 colon
[35] = tested on: TK-10 renal
[36] = tested on: A549 NSCLC
[37] = tested on: KM12 colon
[38] = tested on: HOP-18 NSCLC
[39] = tested on: CCRF-CEM leukemia
[40] = tested on: DMS 114 small cell lung
[41] = tested on: U251 CNS
[42] = tested on: M14 melanoma
[43] = tested on: RXF 393 renal
[44] = tested on: KM20L2 colon
[45] = tested on: ACHN renal
[46] = tested on: SNB-19 CNS
[47] = tested on: OVCAR-4 ovarian
[48] = tested on: NCI-H522 lung
[49] = tested on: UACC-257 melanoma
[50] = tested on: SF-295 CNS
[51] = tested on: HOP-62 NSCLC
[52] = tested on: MOLT-4 leukemia
[53] = tested on: HL-60(TB) leukemia
[54] = tested on: SK-MEL-5 melanoma
[55] = tested on: SR leukemia
[56] = tested on: SF-539 CNS

O=c1ncccn1C1OC(CO)C(O)C1O (centres undefined) showed a TGI [1] of over 100 µM, a TGI [2] of over 100 µM and a TGI [3] of over 100 µM. It also gave a TGI [4] of over 100 µM, a TGI [5] of over 100 µM and a TGI [6] of over 100 µM. For the same compound, the TGI [7] was over 100 µM, the TGI [8] was over 100 µM and the TGI [9] was over 100 µM. The TGI [10] was over 100 µM, the TGI [11] was over 100 µM and the TGI [12] was over 100 µM. The TGI [13] was over 100 µM, the TGI [14] was over 100 µM and the TGI [15] was over 100 µM. For the same compound, the TGI [16] was over 100 µM, the TGI [17] was over 100 µM and the TGI [18] was over 100 µM. The TGI [19] was over 100 µM, the TGI [20] was over 100 µM and the TGI [21] was over 100 µM. It also gave a TGI [22] of over 100 µM, a TGI [23] of over 100 µM and a TGI [24] of over 100 µM. It also gave a TGI [25] of over 100 µM, a TGI [26] of over 100 µM and a TGI [27] of over 100 µM. It also gave a TGI [28] of over 100 µM, a TGI [29] of over 100 µM and a TGI [30] of over 100 µM. For the same compound, the TGI [31] was over 100 µM, the TGI [32] was over 100 µM and the TGI [33] was over 100 µM. For the same compound, the TGI [34] was over 100 µM, the TGI [35] was over 100 µM and the TGI [36] was over 100 µM. It also gave a TGI [37] of over 100 µM, a TGI [38] of over 100 µM and a TGI [39] of over 100 µM. It also gave a TGI [40] of over 100 µM, a TGI [41] of over 100 µM and a TGI [42] of over 100 µM. It also gave a TGI [43] of over 100 µM, a TGI [44] of over 100 µM and a TGI [45] of over 100 µM. For the same compound, the TGI [46] was over 100 µM, the TGI [47] was over 100 µM and the TGI [48] was over 100 µM.
With O=C1C=CC(=O)c2c(O)c(NCCOCCO)c(Cl)c(O)c21 the TGI [1] was 13.6 µM, the TGI [2] was 30.9 µM and the TGI [3] was 20.4 µM. It also gave a TGI [4] of 14.8 µM, a TGI [6] of 18.1 µM and a TGI [7] of 29.7 µM. The TGI [8] was 20.4 µM, the TGI [9] was over 100 µM and the TGI [10] was 8.32 µM. The TGI [49] was 8.34 µM, the TGI [13] was 34.1 µM and the TGI [14] was over 100 µM. It also gave a TGI [16] of 5.51 µM, a TGI [18] of 11 µM and a TGI [19] of 31.1 µM. For the same compound, the TGI [20] was 11.7 µM, the TGI [21] was 3.51 µM and the TGI [22] was 39.6 µM. For the same compound, the TGI [23] was 32.4 µM, the TGI [24] was 8.43 µM and the TGI [25] was 23 µM. It also gave a TGI [26] of 4.8 µM, a TGI [50] of 24.1 µM and a TGI [27] of 39.4 µM. For the same compound, the TGI [51] was 34.2 µM, the TGI [28] was 16.7 µM and the TGI [30] was 17.2 µM. It also gave a TGI [31] of 3.22 µM, a TGI [32] of 30.2 µM and a TGI [33] of 21.7 µM. The TGI [52] was 27.4 µM, the TGI [34] was 3.64 µM and the TGI [35] was 26.6 µM. For the same compound, the TGI [36] was 19.1 µM, the TGI [37] was 15.1 µM and the TGI [38] was 29.1 µM. The TGI [41] was 30.7 µM, the TGI [53] was over 100 µM and the TGI [54] was 4.47 µM. For the same compound, the TGI [42] was 23.5 µM, the TGI [43] was 27.1 µM and the TGI [45] was 28.7 µM. For the same compound, the TGI [55] was 37.9 µM, the TGI [56] was 15 µM and the TGI [47] was 5.91 µM. The TGI [48] was 3.69 µM.
